Measured values: patent US10674723B2, “1,8-bis(Schiff base)-p-menthane derivatives as well as preparation method and applications thereof” (INSTITUTE OF CHEMICAL INDUSTRY OF FOREST PRODUCTS, CAF, priority 2016, dated 2020)

System: annual ryegrass
Experiment: Pre-emergence herbicidal activity by the Petri dish seed germination method
Format: in vivo
Settings: 25° C., 5 days
Method: Step 2: accurately weigh 1 mmol of the 1,8-bis(Schiff base)-p-menthane derivative and dissolve it in 0.25 mL DMF, and then add a drop of Tween 80 into it; after the product is fully dissolved, the resulting solution is transferred to a 100 mL volumetric flask and is diluted with distilled water to the mark to obtain a solution having a concentration of 10 mmol/L as the mother liquor. Using the two-fold dilution method, a series of diluted sample solutions with different concentrations are prepared with the mother liquor (the concentrations of DMF and Tween 80 in the diluted solutions should be consistent with those in the mother liquor).
The annual ryegrass seeds are soaked with distilled water for 15 h. Place a piece of filter paper on the bottom of a Petri dish (φ9 cm), add 10 mL of the above sample solution having the corresponding concentration into it, respectively, and add the same amount of the mixture of water, DMF and Tween 80 into such a Petri dish as a blank control. Place 10 grains of seeds into each dish. The dishes are then placed in an incubator and cultured at 25° C. for 5 days. The experimental data are analyzed with DPS software, and the inhibition rate of the 1,8-bis(Schiff base)-p-menthane derivative on the root or stem growth of ryegrass seeds is calculated as follows:
[formula] Where: y is the inhibition rate on the root or stem growth, x2 is the root length or stem length of the control sample, and x1 is the root length or stem length of the sample.
1 mmol of the 1,8-bis(2-hydroxyphenylimine)-p-menthane was accurately weighed and dissolved in 0.25 mL DMF; a drop of Tween 80 was then added into it; after the product was fully dissolved, the resulting solution was transferred to a 100 mL volumetric flask and was diluted with distilled water to the mark to obtain a solution having a concentration of 10 mmol/L as the mother liquor. Using the two-fold dilution method, a series of diluted sample solutions with different concentrations (5 mmol/L, 2.5 mmol/L, 1.25 mmol/L, 0.625 mmol/L and 0.3125 mmol/L; the concentrations of DMF and Tween 80 in the diluted solutions should be consistent with those in the mother liquor) were prepared with the mother liquor.
The annual ryegrass seeds were soaked with distilled water for 15 h. Placed a piece of filter paper on the bottom of a Petri dish (φ 9 cm), added 10 mL of the above sample solution having the corresponding concentration into it, respectively, and added the same amount of the mixture of water, DMF and Tween 80 into such a Petri dish as a blank control. 10 grains of seeds were placed into each of the dishes. The dishes were then placed in an incubator and cultured at 25° C. for 5 days.

CC1(N=Cc2c(Cl)cccc2Cl)CCC(C(C)(C)N=Cc2c(Cl)cccc2Cl)CC1 (stereo not drawn) [1,8-bis(2,6-dichlorophenylimine)-p-menthane]
100.0%: inhibition rate on the root growth of ryegrass seeds (0.3125 mmol/L solution) | inhibition rate on the stem growth of ryegrass seeds (0.3125 mmol/L solution) | inhibition rate on the root growth of ryegrass seeds (0.625 mmol/L solution) | inhibition rate on the stem growth of ryegrass seeds (0.625 mmol/L solution) | inhibition rate on the root growth of ryegrass seeds (1.25 mmol/L solution) | inhibition rate on the stem growth of ryegrass seeds (1.25 mmol/L solution) | inhibition rate on the root growth of ryegrass seeds (2.5 mmol/L solution) | inhibition rate on the stem growth of ryegrass seeds (2.5 mmol/L solution) | inhibition rate on the root growth of ryegrass seeds (5 mmol/L solution) | inhibition rate on the stem growth of ryegrass seeds (5 mmol/L solution) | inhibition rate on the root growth of ryegrass seeds (10 mmol/L solution) | inhibition rate on the stem growth of ryegrass seeds (10 mmol/L solution)
